Reference: publication PMC7555825, “New Insights of the Zn(II)-Induced P2 × 4R Positive Allosteric Modulation: Role of Head Receptor Domain SS2/SS3, E160 and D170” (International Journal of Molecular Sciences, 2020)
Numbering of substitutions follows the chain as printed.

Key:
[1] = molecular target: T1, rP2 × 2R (Rattus norvegicus, UniProt P49653); assay: cell-based
T1 sequence (P49653 1-472): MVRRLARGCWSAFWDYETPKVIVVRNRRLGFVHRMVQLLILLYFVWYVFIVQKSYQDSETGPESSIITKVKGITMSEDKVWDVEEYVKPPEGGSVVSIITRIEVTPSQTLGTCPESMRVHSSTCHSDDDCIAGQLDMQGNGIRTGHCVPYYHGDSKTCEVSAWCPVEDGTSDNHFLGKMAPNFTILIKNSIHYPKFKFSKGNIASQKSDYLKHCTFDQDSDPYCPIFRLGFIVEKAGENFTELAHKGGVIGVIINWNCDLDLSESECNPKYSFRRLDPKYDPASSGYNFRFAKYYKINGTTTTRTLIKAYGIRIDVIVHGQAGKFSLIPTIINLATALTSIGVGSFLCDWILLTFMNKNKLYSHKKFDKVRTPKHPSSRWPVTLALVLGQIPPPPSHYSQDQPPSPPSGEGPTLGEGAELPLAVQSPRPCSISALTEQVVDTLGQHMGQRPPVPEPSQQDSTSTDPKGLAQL

[2] = molecular target: T2, rP2 × 4R C132S/C159S mutant (Rattus norvegicus, UniProt P51577, C132S/C159S); assay: ATP concentration–response curves, voltage clamp, C132S/C159S double mutant; format: cell-based
T2 construct: host or cells: Xenopus laevis oocytes
T2 sequence (P51577 1-388 C132S/C159S): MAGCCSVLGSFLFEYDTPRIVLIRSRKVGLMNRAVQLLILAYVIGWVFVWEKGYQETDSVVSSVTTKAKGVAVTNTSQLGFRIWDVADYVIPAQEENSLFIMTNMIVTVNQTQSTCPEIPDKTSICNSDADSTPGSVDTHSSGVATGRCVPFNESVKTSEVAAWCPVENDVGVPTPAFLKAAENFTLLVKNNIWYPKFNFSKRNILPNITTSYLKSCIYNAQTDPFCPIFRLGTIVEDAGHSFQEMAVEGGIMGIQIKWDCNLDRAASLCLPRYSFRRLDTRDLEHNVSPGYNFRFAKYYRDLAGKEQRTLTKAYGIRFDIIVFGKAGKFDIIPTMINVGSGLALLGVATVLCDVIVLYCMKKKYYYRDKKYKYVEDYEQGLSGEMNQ

[3] = molecular target: T3, rP2 × 4R (Rattus norvegicus, UniProt P51577); assay: ATP concentration–response curves, two-electrode voltage clamp in oocytes expressing wild type rP2 × 4R; format: cell-based
T3 construct: host or cells: Xenopus laevis oocytes (intranuclear plasmid injection, pcDNA3)
T3 sequence (P51577 1-388): T2 sequence (P51577 1-388 C132S/C159S) with S132C, S159C

[4] = molecular target: T4, rP2 × 4R C132T/C159T mutant (Rattus norvegicus, UniProt P51577, C132T/C159T); assay: ATP concentration–response curves, voltage clamp, C132T/C159T double mutant; format: cell-based
T4 construct: expressed in transfected cells; host or cells: Xenopus laevis oocytes
T4 sequence (P51577 1-388 C132T/C159T): T2 sequence (P51577 1-388 C132S/C159S) with S132T, S159T

[5] = molecular target: T5, rP2 × 4R C159T mutant (Rattus norvegicus, UniProt P51577, C159T); assay: ATP concentration–response curves, voltage clamp, C159T mutant; format: cell-based; details: for EC50: ATP EC50, C159T
T5 construct: expressed in transfected cells; host or cells: Xenopus laevis oocytes
T5 sequence (P51577 1-388 C159T): T2 sequence (P51577 1-388 C132S/C159S) with S132C, S159T

[6] = molecular target: T6, rP2 × 4R E160Q mutant (Rattus norvegicus, UniProt P51577, E160Q); assay: ATP concentration–response curves, voltage clamp, E160Q mutant; format: cell-based; details: for EC50: ATP EC50, E160Q
T6 construct: host or cells: Xenopus laevis oocytes
T6 sequence (P51577 1-388 E160Q): T2 sequence (P51577 1-388 C132S/C159S) with S132C, S159C, E160Q

[7] = ATP EC50, NEM treatment + Zn(II) group, control before treatment (first ATP curve)
[8] = ATP EC50, NEM treatment + vehicle group, control before treatment (first ATP curve)
[9] = ATP EC50, after 300 µM NEM + vehicle treatment, control = ATP curve after treatment

## Nc1ncnc2c1ncn2[C@@H]1O[C@H](COP(=O)(O)OP(=O)(O)OP(=O)(O)O)[C@@H](O)[C@H]1O [ATP, adenosine triphosphate]
[1]; [7]
  EC50: 39.9 ± 8.3 µM
[1]; [8]
  EC50: 67.7 ± 13.3 µM
[1]; ATP EC50, after 300 µM NEM + 30 µM Zn(II) treatment, control = ATP curve after treatment
  EC50: 33 ± 7.4 µM
[1]; [9]
  EC50: 35 ± 9.2 µM
[1]; ATP EC50, vehicle treatment, Figure 1D, without Zn(II)
  EC50: 56.4 ± 7.4 µM
[2]; control
  EC50: 20.5 ± 5 µM
[3]; [7]
  EC50: 24.5 ± 9.1 µM
[3]; [8]
  EC50: 23 ± 8.3 µM
[3]; ATP EC50, P2 × 4 WT, control
  EC50: 27.5 ± 10.6 µM
[3]; ATP EC50, after 300 µM DTNB + 10 µM Zn(II) treatment and washout, Figure S3
  EC50: 79.8 ± 64.4 µM
[3]; ATP EC50, after 300 µM NEM + 10 µM Zn(II) treatment, control = ATP curve after treatment
  EC50: 44.9 ± 17.7 µM
[3]; [9]
  EC50: 23.8 ± 7 µM
[3]; ATP EC50, control of the DTNB + Zn(II) experiment, Figure S3
  EC50: 50.3 ± 16 µM
[3]; ATP EC50, vehicle-treated oocytes (Barth's buffer), Figure 1A, without Zn(II)
  EC50: 35.3 ± 6.6 µM
[3]; after 300 µM NEM + 10 µM Zn(II) treatment, ATP curve in presence of 10 µM Zn(II)
  Imax: 9.3 ± 2.2 µA
[4]; control
  EC50: 27.4 ± 13.6 µM
  Imax: 3.2 ± 0.7 µA
[5]; +10 µM Zn(II)
  EC50: 7 ± 2 µM
[5]; control
  EC50: 37.3 ± 8.8 µM
[6]; +10 µM Zn(II)
  EC50: 25.9 ± 7.1 µM
[6]; control
  EC50: 23.8 ± 10.1 µM

## [Cl-].[Cl-].[Zn+2] [Zn(II), zinc chloride (ZnCl2)]
[2]; 10 µM Zn(II)
  fold reduction in ATP EC50 by Zn(II): 3.41 fold
[3]; 10 µM Zn(II), vehicle-treated oocytes
  fold reduction of ATP EC50 by Zn(II): 3.82 fold
[3]; WT, matched paired control oocytes, 10 µM Zn(II)
  fold leftward shift of ATP EC50 by Zn(II): 3.45 fold
[4]; 10 µM Zn(II)
  fold ATP EC50 reduction by Zn(II): 5.5 fold
[5]; C159T, 10 µM Zn(II)
  fold ATP EC50 reduction by Zn(II): 5.32 fold
[6]; E160Q, 10 µM Zn(II)
  Zn(II) modulation of the mutant: resistant to Zn(II) modulation
